Drawing on ChEMBL document CHEMBL5241064, “Specific non-genetic IAP-based protein erasers (SNIPERs) as a potential therapeutic strategy” (Eur J Med Chem, 2021), this text covers EC50 for 4 compounds.

pEC50: −log10 of the molar value.

For assay [1], the target named is Estrogen receptor/E3 ubiquitin-protein ligase XIAP (Homo sapiens, UniProt P03372+P98170). Kind of assay: Protac activity at XIAP (unknown origin)/ERalpha (unknown origin) assessed as protein degradation. In kind it is protein assay.
Assay [2] has as its target Baculoviral IAP repeat-containing protein 2/E3 ubiquitin-protein ligase XIAP/Breakpoint cluster region protein/Tyrosine-protein kinase ABL1 (Homo sapiens, UniProt P00519+P11274+P98170+Q13490). The experiment in a line: Protac activity at IAP/BCR-ABL in human K562 cells assessed as induction of BCR-ABL protein degradation measured after 6 hrs by Western blot analysis. Type of assay: cell-based. In general terms: Immunoblotting shows a protein as a band on a membrane.

In assay [3] the target is E3 ubiquitin-protein ligase XIAP/Tyrosine-protein kinase ABL1/Breakpoint cluster region protein (Homo sapiens, UniProt P00519+P11274+P98170). The experiment in a line: Protac activity at XIAP/BCR-ABL in human K562 cells assessed as induction of BCR-ABL protein degradation measured after 6 hrs by Western blot analysis. Type of assay: cell-based.
Assay [4] concerns the target Baculoviral IAP repeat-containing protein 2/Cellular retinoic acid-binding protein 2 (Homo sapiens, UniProt P29373+Q13490). Kind of assay: Protac activity at cIAP1 (unknown origin)/CRABP-II (unknown origin) assessed as protein degradation.

Chain of Estrogen receptor/E3 ubiquitin-protein ligase XIAP (P03372 whole entry): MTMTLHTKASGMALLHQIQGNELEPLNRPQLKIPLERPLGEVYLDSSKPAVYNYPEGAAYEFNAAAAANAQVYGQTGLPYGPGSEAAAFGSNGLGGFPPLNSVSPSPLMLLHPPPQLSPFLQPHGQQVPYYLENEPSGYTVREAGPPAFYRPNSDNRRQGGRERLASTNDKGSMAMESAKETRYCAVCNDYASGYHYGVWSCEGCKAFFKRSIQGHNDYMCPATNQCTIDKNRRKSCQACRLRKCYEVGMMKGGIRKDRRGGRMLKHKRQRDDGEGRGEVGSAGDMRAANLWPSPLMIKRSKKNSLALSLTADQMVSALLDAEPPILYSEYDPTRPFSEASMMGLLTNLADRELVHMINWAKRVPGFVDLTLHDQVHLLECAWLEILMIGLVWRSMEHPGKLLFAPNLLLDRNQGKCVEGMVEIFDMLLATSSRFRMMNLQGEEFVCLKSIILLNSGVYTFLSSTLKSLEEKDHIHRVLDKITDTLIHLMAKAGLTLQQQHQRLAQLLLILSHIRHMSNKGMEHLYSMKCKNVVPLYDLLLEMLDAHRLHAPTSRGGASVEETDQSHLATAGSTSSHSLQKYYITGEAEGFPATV
Chain of Estrogen receptor/E3 ubiquitin-protein ligase XIAP (P98170 whole entry): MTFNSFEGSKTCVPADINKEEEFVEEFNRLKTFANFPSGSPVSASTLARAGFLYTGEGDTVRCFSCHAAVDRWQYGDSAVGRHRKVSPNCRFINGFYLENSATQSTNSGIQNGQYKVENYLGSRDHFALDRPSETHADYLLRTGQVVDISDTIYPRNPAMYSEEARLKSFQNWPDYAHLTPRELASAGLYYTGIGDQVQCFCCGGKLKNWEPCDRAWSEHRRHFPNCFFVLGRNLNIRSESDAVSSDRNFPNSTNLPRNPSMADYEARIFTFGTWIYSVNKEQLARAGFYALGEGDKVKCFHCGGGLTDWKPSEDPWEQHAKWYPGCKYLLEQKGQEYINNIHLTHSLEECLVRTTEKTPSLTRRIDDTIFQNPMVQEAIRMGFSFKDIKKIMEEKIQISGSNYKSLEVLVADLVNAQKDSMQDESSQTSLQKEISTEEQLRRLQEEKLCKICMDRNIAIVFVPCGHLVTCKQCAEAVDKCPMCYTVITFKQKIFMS
Chain of Baculoviral IAP repeat-containing protein 2/Cellular retinoic acid-binding protein 2 (P29373 whole entry): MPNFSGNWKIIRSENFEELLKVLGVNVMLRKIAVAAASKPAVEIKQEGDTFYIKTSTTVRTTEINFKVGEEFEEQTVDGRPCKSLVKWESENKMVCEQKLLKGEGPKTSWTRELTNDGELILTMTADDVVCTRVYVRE
Chain of Baculoviral IAP repeat-containing protein 2/Cellular retinoic acid-binding protein 2 (Q13490 whole entry): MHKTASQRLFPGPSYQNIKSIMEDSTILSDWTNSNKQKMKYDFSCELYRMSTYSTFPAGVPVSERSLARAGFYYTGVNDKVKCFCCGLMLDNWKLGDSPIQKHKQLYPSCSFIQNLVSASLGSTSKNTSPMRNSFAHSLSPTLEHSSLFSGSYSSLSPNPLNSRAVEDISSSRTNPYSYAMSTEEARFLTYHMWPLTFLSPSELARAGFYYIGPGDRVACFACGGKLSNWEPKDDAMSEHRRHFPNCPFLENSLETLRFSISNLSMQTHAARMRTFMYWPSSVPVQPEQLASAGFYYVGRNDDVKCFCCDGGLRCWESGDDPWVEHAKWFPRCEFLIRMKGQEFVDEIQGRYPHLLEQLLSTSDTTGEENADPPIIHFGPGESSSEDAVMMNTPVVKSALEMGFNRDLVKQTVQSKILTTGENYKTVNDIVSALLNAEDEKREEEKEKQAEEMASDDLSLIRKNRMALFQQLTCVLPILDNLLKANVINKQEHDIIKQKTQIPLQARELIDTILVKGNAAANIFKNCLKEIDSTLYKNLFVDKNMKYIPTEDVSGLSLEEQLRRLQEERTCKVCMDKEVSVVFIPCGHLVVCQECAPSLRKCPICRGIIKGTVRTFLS
Chain of E3 ubiquitin-protein ligase XIAP/Tyrosine-protein kinase ABL1/Breakpoint cluster region protein (P00519 whole entry): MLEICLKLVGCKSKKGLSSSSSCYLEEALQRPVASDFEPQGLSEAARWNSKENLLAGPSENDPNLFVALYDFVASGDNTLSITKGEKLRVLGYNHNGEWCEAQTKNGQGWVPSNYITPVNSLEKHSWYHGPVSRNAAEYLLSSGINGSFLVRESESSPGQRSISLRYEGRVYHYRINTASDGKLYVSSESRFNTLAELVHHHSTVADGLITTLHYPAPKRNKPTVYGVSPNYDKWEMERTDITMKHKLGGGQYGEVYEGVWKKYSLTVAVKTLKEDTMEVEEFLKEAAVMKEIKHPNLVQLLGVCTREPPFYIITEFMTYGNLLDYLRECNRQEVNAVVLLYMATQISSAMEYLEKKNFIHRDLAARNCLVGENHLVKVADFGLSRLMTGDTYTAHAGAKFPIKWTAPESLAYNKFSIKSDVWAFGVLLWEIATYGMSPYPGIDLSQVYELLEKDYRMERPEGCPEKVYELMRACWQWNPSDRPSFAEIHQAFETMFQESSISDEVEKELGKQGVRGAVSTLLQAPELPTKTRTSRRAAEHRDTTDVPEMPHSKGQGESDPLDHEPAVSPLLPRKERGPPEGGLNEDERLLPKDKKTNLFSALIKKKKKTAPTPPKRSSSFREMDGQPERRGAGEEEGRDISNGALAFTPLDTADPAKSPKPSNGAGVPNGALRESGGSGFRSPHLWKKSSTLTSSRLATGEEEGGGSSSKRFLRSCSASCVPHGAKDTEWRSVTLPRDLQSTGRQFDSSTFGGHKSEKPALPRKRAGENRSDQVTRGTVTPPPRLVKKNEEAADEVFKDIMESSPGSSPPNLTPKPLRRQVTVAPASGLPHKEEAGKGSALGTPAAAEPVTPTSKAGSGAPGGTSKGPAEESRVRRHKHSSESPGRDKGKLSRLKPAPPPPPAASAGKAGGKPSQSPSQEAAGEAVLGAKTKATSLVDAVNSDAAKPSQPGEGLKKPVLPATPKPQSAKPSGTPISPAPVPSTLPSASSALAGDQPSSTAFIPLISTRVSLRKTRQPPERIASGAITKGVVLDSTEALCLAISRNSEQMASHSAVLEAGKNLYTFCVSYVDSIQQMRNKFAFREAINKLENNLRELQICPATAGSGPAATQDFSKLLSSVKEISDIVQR
Chain of E3 ubiquitin-protein ligase XIAP/Tyrosine-protein kinase ABL1/Breakpoint cluster region protein (P98170 whole entry): as the sequence (P98170 whole entry) above
Chain of E3 ubiquitin-protein ligase XIAP/Tyrosine-protein kinase ABL1/Breakpoint cluster region protein (P11274 whole entry): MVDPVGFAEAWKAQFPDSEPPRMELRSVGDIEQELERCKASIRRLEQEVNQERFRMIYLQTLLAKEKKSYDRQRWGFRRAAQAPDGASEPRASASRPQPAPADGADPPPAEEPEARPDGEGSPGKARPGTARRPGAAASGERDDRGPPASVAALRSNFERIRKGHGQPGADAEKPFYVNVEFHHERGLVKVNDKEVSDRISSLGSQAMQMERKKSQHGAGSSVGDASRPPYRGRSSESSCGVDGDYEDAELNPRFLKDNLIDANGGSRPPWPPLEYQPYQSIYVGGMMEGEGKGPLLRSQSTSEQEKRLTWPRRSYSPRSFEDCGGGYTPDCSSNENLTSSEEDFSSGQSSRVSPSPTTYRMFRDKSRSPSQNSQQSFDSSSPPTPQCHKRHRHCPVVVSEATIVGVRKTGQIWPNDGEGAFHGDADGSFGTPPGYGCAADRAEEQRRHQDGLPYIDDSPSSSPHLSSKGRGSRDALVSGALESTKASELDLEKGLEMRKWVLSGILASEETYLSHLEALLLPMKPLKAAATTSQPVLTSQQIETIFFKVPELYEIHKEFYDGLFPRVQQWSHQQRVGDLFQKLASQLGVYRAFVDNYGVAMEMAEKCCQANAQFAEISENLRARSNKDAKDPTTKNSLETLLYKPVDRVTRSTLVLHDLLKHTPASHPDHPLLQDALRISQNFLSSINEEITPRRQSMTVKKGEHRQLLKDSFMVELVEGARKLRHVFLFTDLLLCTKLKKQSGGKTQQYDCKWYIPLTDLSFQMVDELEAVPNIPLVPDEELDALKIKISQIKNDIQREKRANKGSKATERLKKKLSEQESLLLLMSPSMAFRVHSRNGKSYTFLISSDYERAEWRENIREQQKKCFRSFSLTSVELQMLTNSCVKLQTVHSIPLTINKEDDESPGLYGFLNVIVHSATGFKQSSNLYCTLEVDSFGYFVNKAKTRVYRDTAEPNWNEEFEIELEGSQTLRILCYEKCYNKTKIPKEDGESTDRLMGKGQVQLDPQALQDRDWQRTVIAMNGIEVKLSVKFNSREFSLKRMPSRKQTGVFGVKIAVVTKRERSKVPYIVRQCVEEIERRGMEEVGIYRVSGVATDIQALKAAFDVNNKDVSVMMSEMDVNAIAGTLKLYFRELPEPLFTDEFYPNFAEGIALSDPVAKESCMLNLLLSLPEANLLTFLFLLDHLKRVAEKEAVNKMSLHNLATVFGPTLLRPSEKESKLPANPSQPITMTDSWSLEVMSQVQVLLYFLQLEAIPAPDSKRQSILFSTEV

Take `CC/C(=C(\c1ccc(O)cc1)c1ccc(OCCN(C)C(=O)COCCOCCOCc2cccc(O[C@H]3C[C@@H](C(=O)N[C@@H]4CCCc5ccccc54)N(C(=O)[C@@H](NC(=O)[C@H](C)NC)C4CCCCC4)C3)c2)cc1)c1ccccc1`: in assay [1], the pEC50 (in general, the EC50 on a negative log10 scale, so that one unit is a factor of ten) was greater than 7.00.
Take `CN[C@@H](C)C(=O)N[C@H](C(=O)N1CCC[C@H]1c1nc(C(=O)c2cccc(OCCOCCOCCOCC(=O)N3CCN(c4cc(Nc5ncc(C(=O)Nc6c(C)cccc6Cl)s5)nc(C)n4)CC3)c2)cs1)C1CCCCC1`: the pEC50 in assay [2] and in assay [3] was greater than 7.00 each time.
Regarding `CC/C(=C(\c1ccc(O)cc1)c1ccc(OCCN(C)C(=O)COCCCCOc2cccc(C(=O)c3csc([C@@H]4CCCN4C(=O)[C@@H](NC(=O)[C@H](C)NC)C4CCCCC4)n3)c2)cc1)c1ccccc1`, the pEC50 in assay [1] was greater than 7.00.
For the compound `CC1=C(/C=C/C(C)=C/C=C/C(C)=C/C(=O)O)C(C)(C)CC/C1=N\OCC(=O)NCCOCCOCCOC(=O)[C@H](CC(C)C)NC(=O)[C@@H](O)[C@H](N)Cc1ccccc1`, in assay [4], the pEC50 was no more than 6.00.
